“And” between values parts separate entries of the source, which are not always exact repeats. Identical values can stand only once. Like-named read-outs stand apart in the source and are kept apart here.
How the values were obtained:
Format in all cases: cell-based
OAT10 = OAT10 (Homo sapiens, UniProt Q9Y226); test: [14C]-urate uptake by OAT10-expressing Xenopus oocytes; details: for Inhibition of OAT10-mediated urate uptake: drug 100 μmol/L, PZA-preloaded oocytes
Source text: (§1) For uptake experiments, oocytes were washed four times with ND96 medium (pH 7.4) without pyruvate and gentamycin.
(A) Time course of [^14C]‐urate uptake by control and […] oocytes. […] Inset, western blot analysis of OAT10 protein expressed in oocytes. […] (C) [^14C]‐urate transport properties of OAT10: voltage sensitivity and Na+‐dependence was examined by replacing extracellular NaCl by KCl or LiCl. Existence of urate/Cl^− exchange mechanism or Cl^− dependence or cis‐inhibitory effects of extracellular Cl^− on was verified by [^14C]‐urate uptake via OAT10 in the absence of extracellular Cl^− ion (0 Cl^−). In 0 Cl^− bath, NaCl was replaced by Na‐gluconate (Na‐Gluc), KCl by K‐gluconate (K‐Gluc), MgCl2 by Mg‐gluconate, and CaCl2 by Ca‐gluconate. […] Data are mean ± S.E. with n = 12–15.

OAT4 = target: T1, OAT4 (Homo sapiens, UniProt Q9NSA0); test: [14C]-urate uptake by OAT4-expressing Xenopus oocytes; details: for Inhibition of OAT4-mediated urate uptake: drug 100 μmol/L
T1 sequence (Q9NSA0 1-550): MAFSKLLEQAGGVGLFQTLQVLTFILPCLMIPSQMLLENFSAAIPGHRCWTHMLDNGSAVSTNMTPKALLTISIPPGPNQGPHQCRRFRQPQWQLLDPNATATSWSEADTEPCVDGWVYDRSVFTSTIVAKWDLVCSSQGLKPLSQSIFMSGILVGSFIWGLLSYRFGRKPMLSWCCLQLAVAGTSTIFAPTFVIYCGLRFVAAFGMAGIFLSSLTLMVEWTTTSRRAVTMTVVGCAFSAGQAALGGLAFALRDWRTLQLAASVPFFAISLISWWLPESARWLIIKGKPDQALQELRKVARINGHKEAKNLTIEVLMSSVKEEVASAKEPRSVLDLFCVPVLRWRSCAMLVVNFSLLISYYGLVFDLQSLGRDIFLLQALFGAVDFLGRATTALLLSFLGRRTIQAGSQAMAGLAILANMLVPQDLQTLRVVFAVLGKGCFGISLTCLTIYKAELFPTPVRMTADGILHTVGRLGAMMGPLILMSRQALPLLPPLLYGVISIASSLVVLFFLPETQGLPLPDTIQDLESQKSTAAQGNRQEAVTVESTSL
Experimental: as §1
(A) The uptake of [^14C]‐urate by OAT4‐expressing oocytes was performed in ND96 medium (pH 7.4) at ~25°C for 1 h. Na^+‐dependence was examined by replacing extracellular NaCl by KCl. […] (B) The inhibition of [^14C]‐urate uptake by OAT4 was examined in the presence of extracellular organic anions (for cis‐inhibition) or uricosuric drugs at the indicated concentrations. […] Data are mean ± S.E. with n = 12–15.

URAT1 = target: T2, URAT1 (Homo sapiens, UniProt Q96S37); test: [14C]-urate uptake by URAT1-expressing Xenopus oocytes; details: for IC50: 40 μmol/L urate
T2 sequence (Q96S37 1-553): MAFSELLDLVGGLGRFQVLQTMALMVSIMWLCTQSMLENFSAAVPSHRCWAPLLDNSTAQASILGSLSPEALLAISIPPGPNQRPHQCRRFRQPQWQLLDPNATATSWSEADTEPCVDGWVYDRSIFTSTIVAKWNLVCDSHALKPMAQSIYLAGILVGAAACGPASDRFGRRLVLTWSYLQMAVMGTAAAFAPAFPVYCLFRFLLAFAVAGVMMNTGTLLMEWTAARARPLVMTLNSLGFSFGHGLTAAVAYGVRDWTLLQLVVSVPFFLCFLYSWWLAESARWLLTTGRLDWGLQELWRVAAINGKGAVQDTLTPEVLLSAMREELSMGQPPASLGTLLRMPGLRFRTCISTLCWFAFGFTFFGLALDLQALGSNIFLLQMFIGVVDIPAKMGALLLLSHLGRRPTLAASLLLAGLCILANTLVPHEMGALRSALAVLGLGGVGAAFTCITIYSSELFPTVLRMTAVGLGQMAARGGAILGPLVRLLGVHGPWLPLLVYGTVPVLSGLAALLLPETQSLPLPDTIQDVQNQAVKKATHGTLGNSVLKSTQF
Source text: as §1

OAT3 = target: T3, OAT3 (Mus musculus, UniProt O88909); test: [14C]-urate uptake by OAT3-expressing Xenopus oocytes
T3 sequence (O88909 1-537): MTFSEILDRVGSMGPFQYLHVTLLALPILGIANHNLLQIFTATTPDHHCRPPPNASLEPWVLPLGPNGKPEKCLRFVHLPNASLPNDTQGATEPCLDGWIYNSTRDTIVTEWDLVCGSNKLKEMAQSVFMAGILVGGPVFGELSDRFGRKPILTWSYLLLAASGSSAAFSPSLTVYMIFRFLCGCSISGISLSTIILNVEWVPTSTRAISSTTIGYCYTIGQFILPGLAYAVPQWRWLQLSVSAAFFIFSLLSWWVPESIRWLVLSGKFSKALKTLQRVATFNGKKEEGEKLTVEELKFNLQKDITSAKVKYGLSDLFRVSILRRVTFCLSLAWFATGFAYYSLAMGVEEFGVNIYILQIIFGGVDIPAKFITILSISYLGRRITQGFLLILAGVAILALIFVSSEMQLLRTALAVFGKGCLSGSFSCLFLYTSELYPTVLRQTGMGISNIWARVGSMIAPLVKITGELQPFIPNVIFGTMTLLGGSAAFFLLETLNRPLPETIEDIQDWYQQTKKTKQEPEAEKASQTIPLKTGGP
Experimental: as §1
The uptake of [^14C]‐urate (40 μmol/L) was performed in ND96 medium (pH 7.4) at ~25°C for 1 h.

Chain of OAT10 (Q9Y226 whole entry): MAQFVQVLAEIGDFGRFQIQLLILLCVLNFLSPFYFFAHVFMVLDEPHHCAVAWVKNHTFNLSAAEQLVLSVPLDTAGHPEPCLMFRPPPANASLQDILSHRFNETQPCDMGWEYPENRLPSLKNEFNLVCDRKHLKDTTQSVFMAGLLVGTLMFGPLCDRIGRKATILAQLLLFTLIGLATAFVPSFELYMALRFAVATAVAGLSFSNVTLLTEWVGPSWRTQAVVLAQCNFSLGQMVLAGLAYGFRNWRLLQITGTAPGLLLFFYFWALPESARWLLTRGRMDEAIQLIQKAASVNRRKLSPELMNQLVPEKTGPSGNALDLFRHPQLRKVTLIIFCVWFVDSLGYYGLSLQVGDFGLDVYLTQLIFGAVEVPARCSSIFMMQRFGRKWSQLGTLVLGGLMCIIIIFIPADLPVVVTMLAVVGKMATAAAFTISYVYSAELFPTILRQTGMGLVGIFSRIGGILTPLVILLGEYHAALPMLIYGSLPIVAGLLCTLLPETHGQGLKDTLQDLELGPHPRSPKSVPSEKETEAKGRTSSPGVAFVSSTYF

SMILES | IC50 (OAT10; data not shown, read-out: IC50, [14C]-urate uptake by OAT10) [µM] | Inhibition of OAT10-mediated urate uptake (OAT10) | IC50 (OAT4; data not shown) [µM] | Inhibition of OAT4-mediated urate uptake (OAT4) | URAT1 urate transport inhibition after washing and removal of inhibitor (URAT1) | Vmax of URAT1-mediated urate uptake (URAT1) | mode of inhibition of URAT1-mediated urate transport (URAT1) | Ki (URAT1; Eadie-Hofstee analysis, read-out: inhibition constant (Ki) for URAT1-mediated urate uptake) [µM] | IC50 (URAT1; IC50, URAT1-mediated [14C]-urate/PZA or [14C]-urate/nicotinate exchange, oocytes preloaded with nicotinate (Fig. 1E), 1 h) | IC50 (URAT1; uptake in the absence of PZA or nicotinate preloading, data not shown, read-out: IC50, basal URAT1-mediated [14C]-urate uptake) [µM] | IC50 (OAT3; data not shown, read-out: IC50, OAT3-mediated urate uptake) [µM] | Inhibition of OAT3-mediated urate uptake (OAT3; drug 50 μmol/L) | IC50 (OAT10) [µM] | Inhibition of URAT1-mediated [14C]-urate/PZA or /nicotinate exchange (URAT1) | Reversibility of URAT1 inhibition (URAT1) | Inhibition of OAT3-mediated urate uptake (OAT3; drug 100 μmol/L) | inhibition at 1000 µM (OAT10; read-out: Inhibition of OAT10 urate transport activity) [%] | inhibition at 1000 µM (OAT4; read-out: Inhibition of OAT4-mediated urate uptake) [%] | Inhibition of OAT3-mediated urate uptake (OAT3; drug 1.0 mmol/L)
COc1ccc(C=CC(=O)Nc2ccccc2C(=O)O)cc1OC [tranilast, N‐(3,4‐dimethoxycinnamoyl) anthranilic acid] | ~31 | very efficiently inhibited | ~22 | very efficiently inhibited | almost no inhibition | 120.1 pmoles/oocyte/h and 63.5 pmoles/oocyte/h | noncompetitive inhibition (mixed) | 21.3 ± 2.2 | 21 µM and ~21 µM | ~20 | ~15 | effectively inhibited |  |  |  |  |  |  | 
CCc1oc2ccccc2c1C(=O)c1cc(Br)c(O)c(Br)c1 [benzbromarone] |  | very efficiently inhibited |  | very efficiently inhibited | substantially inhibited |  |  |  |  |  |  |  | ~20 | efficiently inhibited | not reversible | effectively inhibited |  |  | 
CCCN(CCC)S(=O)(=O)c1ccc(C(=O)O)cc1 [probenecid] |  |  |  |  |  |  |  |  |  |  |  |  |  | efficiently inhibited | not reversible |  | ~65 | 80 | effectively inhibited

Source: paper PMC5368959, “Uricosuric targets of tranilast” (Pharmacology Research & Perspectives, 2017)
